Where no end group is shown, it is not given here. [ ]: non-standard residue; d: D form. Phe(4-NO2) = N[C@@H](Cc1ccc([N+](=O)[O-])cc1)C(=O)O; Tic = O=C(O)[C@@H]1Cc2ccccc2CN1; Cha = N[C@@H](CC1CCCCC1)C(=O)O; Cit = NC(=O)NCCC[C@H](N)C(=O)O; Tle = CC(C)(C)[C@H](N)C(=O)O; hSer = N[C@@H](CCO)C(=O)O; βAla = NCCC(=O)O
Columns and labels:
CaCo2 monolayers [1] = test: Trans Epithelial Electric Resistance (TEER) across cell monolayer; type: cell-based; set-up: key to Reduced TEER: + indicates an enhancement of the permeability of the tight junctions were observed; − indicates no enhancement of permeability was observed; details: Caco-2 monolayer
Source text: (§1) Agonists of tight junctions can be identified by their ability to enhance the flux of compounds (e.g. ions, Lucifer Yellow) through a cell monolayer that comprises tight junctions; or by their ability to reduce TEER across a cell monolayer that comprises tight junctions. Treatment of CaCo2 monolayers with peptide FCIGRL (SEQ ID NO: 1) led to a 51-fold enhancement of Lucifer Yellow permeability through CaCo2 monolayers compared to vehicle alone. Treatment of CaCo2 monolayers with peptide FCIGRL led to a 16-fold decrease in TEER across CaCo2 monolayers compared to vehicle alone.
(§2) Determination of TEER and Lucifer Yellow Flux
(§3) Prepare Modified Hank's Balanced Salt Solution (MHBSS) by obtaining 1 L bottle of HBSS removing 10 ml of HBSS and replacing it with 10 ml HEPES buffer pH 7.0. Adjust pH to 7.4±0.1 using concentrated NaOH (10N).
(§4) Remove Caco-2 cells from incubator, grown on 12-well, […], polycarbonate Transwell® filters (Corning) and record passage#, date cells seeded and age in days.
(§5) Aspirate cell culture medium from both the apical (AP) and basolateral (BL) compartments, replacing with 0.5 ml and 1.5 ml of MHBSS, respectively. Incubate cells at 37° C. for 30 minutes.
Using the MilliCell®-ERS instrument (Millipore), measure and record the transepithelial electrical resistance (TEER) across each filter and record.
(§6) Aspirate solution from the apical compartment of each filter (n=3 per condition) and replace with 0.5 ml of control and test solutions containing Lucifer Yellow and test compound if appropriate.
(§7) Place all plates into incubator set at 37° C. (±0.2), 50 RPM (±5) for a total of 180 minutes.
At t=30, 60, 120 and 180 minutes, measure and record the transepithelial electrical resistance (TEER) across each filter using the MilliCell-ERS instrument.
(§8) Cells: Caco-2 cells passage 40-60 grown on Transwell® plates for 21-28 days
(§9) Culture Medium: DMEM supplemented with 10% fetal bovine serum, 1% NEAA, 1% Penn/Strep
(§10) Buffers: Hank's Balanced Salt Solution (HBSS) without calcium and magnesium
(§11) Flasks: 100×20 mm Tissue culture dish Falcon.
(§12) Plates: 12 well polycarbonate Transwell® filters; 0.3 uM pore size

CaCo2 monolayers [2] = test: Epithelial flux of Lucifer Yellow through cell monolayer; type: cell-based; set-up: key to Enhanced LY permeability: + indicates an enhancement of the permeability of the tight junctions were observed; − indicates no enhancement of permeability was observed; details: Lucifer Yellow flux, Caco-2 monolayer
Source text: as §1, §2, §3, §4, §5, §6, §7
At t=60, 120 and 180 minutes remove 100 μl from each basolateral compartment and place it in a 96-well plate for Lucifer Yellow analysis, replace with 100 μl of MHBSS.
Make a Lucifer Yellow standard curve with the following dilutions (7500 μM, 3750 μM, 750 μM, 375 μM, 75 μM, 37.5 μM, 7.5 μM, 3.75 μM, 0.75 μM) and pipette […] of each into a 96-well plate except for the first three standards mentioned above which require a 1:10 dilutions prior to transferring to the 96-well plate.
Harvest the remaining start solutions and what is left in each apical compartment into 1.5 ml vials. Freeze at −20° C. for future analysis.
Analyze each 96-well plate in a Tecan Spectra Fluor Plus using Magellan at 485 and 535 nm.
as §8, §9, §10, §11, §12

Row | Substance | Reduced TEER (CaCo2 monolayers [1]) | Enhanced LY permeability (CaCo2 monolayers [2])
1 | 1 (FCIGRL; not fully specified) [compound 1] | + | +
2 | 4 (FCAGRL; not fully specified; printed as Phe-Cys-Ala-Gly-Arg-Leu) [compound 4] | − | −
3 | 9 (IGRL; not fully specified; printed as Ile-Gly-Arg-Leu) [compound 9] | − | −
4 | 12 ([dF]CIGRL; also: peptide conjugate) [compound 12] | + | +
5 | 20 ([dL][dR]GI[dC][dF]; not fully specified; printed as D-Leu-D-Arg-Gly-Ile-D-Cys-D-Phe) [compound 20] | + | +
6 | 21 ([dL]RG[dI][dC][dF]; not fully specified) [compound 21] | − | −
7 | 26 (LRG[dI]CF; not fully specified; printed as Leu-Arg-Gly-D-Ile-Cys-Phe) [compound 26] | + | +
8 | 27 (LRGI[dC]F; not fully specified; printed as Leu-Arg-Gly-Ile-D-Cys-Phe) [compound 27] | − | −
9 | 28 (LRGIC[dF]; not fully specified; printed as Leu-Arg-Gly-Ile-Cys-D-Phe) [compound 28] | − | −
10 | 30 ([dF][dC][dI]G[dR]L; not fully specified) [compound 30] | + | +
11 | 31 ([dF][dC][dI]GR[dL]; not fully specified) [compound 31] | − | −
12 | 34 (F[dC][dI]G[dR][dL]; not fully specified) [compound 34] | − | −
13 | 35 (F[dC]IG[dR]L; not fully specified; printed as Phe-D-Cys-Ile-Gly-D-Arg-Leu) [compound 35] | + | +
14 | 36 ([dL]RGICF; not fully specified; printed as D-Leu-Arg-Gly-Ile-Cys-Phe) [compound 36] | − | −
15 | 37 ([dL][dR]GICF; not fully specified; printed as D-Leu-D-Arg-Gly-Ile-Cys-Phe) [compound 37] | − | −
16 | 38 ([dL][dR]GIC[dF]; not fully specified) [compound 38] | − | −
17 | 39 ([dL][dR]GI[dC]F; not fully specified) [compound 39] | − | −
18 | 51 (H-[dA]CIGRG-OH; not fully specified) [compound 51] | + | +
19 | 63 (H-FCIGRF-OH; not fully specified) [compound 63] | + | +
20 | 69 (H-FCIGRLC-OH; not fully specified; cysteine pairing not given here) [compound 69] | − | 
21 | 74 (YCIGRL; not fully specified; printed as Tyr-Cys-Ile-Gly-Arg-Leu) [compound 74] | + | +

Row | Substance | Reduced TEER (CaCo2 monolayers [1]) | Enhanced LY permeability (CaCo2 monolayers [2])
22 | 75 (Ac-ACIGRL; not fully specified; printed as Ac-Ala-Cys-Ile-Gly-Arg-Leu) [compound 75] | + | +
23 | 76 (WCIGRL; not fully specified; printed as Trp-Cys-Ile-Gly-Arg-Leu) [compound 76] | + | +
24 | 77 (Ac-ACIGRS; not fully specified; printed as Ac-Ala-Cys-Ile-Gly-Arg-Ser) [compound 77] | − | 
25 | 78 (Ac-ACIGRA; not fully specified; printed as Ac-Ala-Cys-Ile-Gly-Arg-Ala) [compound 78] | − | +
26 | 80 (SLIGRL-NH2; not fully specified; printed as Ser-Leu-Ile-Gly-Arg-Leu-NH2) [compound 80] | + | +
27 | 83 (GFCIGRL; not fully specified; printed as Gly-Phe-Cys-Ile-Gly-Arg-Leu) [compound 83] | + | +
28 | 87 (Ac-FLIGRL-NH2; not fully specified) [compound 87] | + | +
29 | 96 (H-FCIGR[βAla]-OH; SMILES CC[C@H](C)[C@H](NC(=O)[C@H](CS)NC(=O)[C@@H](N)Cc1ccccc1)C(=O)NCC(=O)N[C@@H](CCCNC(=N)N)C(=O)NCCC(=O)O) [compound 96] | + | +
30 | 97 (H-FCIGR[Tle]-OH; SMILES CC[C@H](C)[C@H](NC(=O)[C@H](CS)NC(=O)[C@@H](N)Cc1ccccc1)C(=O)NCC(=O)N[C@@H](CCCNC(=N)N)C(=O)N[C@H](C(=O)O)C(C)(C)C) [compound 97] | + | +
31 | 101 (H-FCIGR[Cha]-OH; SMILES CC[C@H](C)[C@H](NC(=O)[C@H](CS)NC(=O)[C@@H](N)Cc1ccccc1)C(=O)NCC(=O)N[C@@H](CCCNC(=N)N)C(=O)N[C@@H](CC1CCCCC1)C(=O)O) [compound 101] | + | +
32 | 104 (FCIG[Cit]L) [compound 104] | − | 
33 | 105 ([Phe(4-NO2)]CIGRL) [compound 105] | − | 
34 | 109 ([Tic]CIGRL) [compound 109] | − | 
35 | 114 (FTIGRL; also: peptide conjugate) [compound 114] | + | +
36 | 115 (FSIGRL; also: peptide conjugate) [compound 115] | + | +
37 | 116 (FMIGRL; also: peptide conjugate) [compound 116] | − | −
38 | 117 (FLIGRL-NH2; also: peptide conjugate) [compound 117] | − | −
39 | 118 (FFLIGRL-NH2; also: peptide conjugate) [compound 118] | + | +
40 | 119 (FFIGRL; also: peptide conjugate) [compound 119] | + | −
41 | 141 (H-F[hSer]IGRL-OH; SMILES CC[C@H](C)[C@H](NC(=O)[C@H](CCO)NC(=O)[C@@H](N)Cc1ccccc1)C(=O)NCC(=O)N[C@@H](CCCNC(=N)N)C(=O)N[C@@H](CC(C)C)C(=O)O) [compound 141] |  | +

From patent US20120027720A1, “PEPTIDE CONJUGATES” (priority 2008, published 2012)
